Assay [1] in a line: Inhibitory concentration at which 50% decrease in the activity of Squalene epoxidase and Oxidosqualene cyclase in pig liver microsomes. Set-up: species or system Sus scrofa, Microsome. (Liver microsomes are vesicles of endoplasmic reticulum, rich in cytochrome P450 enzymes.)
The nature of assay [2]: Inhibitory concentration at which 50% decrease in the activity of Squalene epoxidase and Oxidosqualene cyclase in pig liver microsomes; NI means no inhibition. Set-up: species or system Sus scrofa, Microsome.
The nature of assay [3]: Inhibitory concentration at which 50% decrease in the activity of Squalene epoxidase in pig liver microsomes; NI means no inhibition.

Molecules are shown by their SMILES.

Here are results for four compounds from ChEMBL document CHEMBL1126509, “Trisnorsqualene methyl hydroxylamine: a potent dual inhibitor of mammalian squalene epoxidase and oxidosqualene cyclase” (Bioorg Med Chem Lett, 1993).

As usually defined, the IC50 is the point on the concentration scale where inhibition reaches its midpoint. As for `CC(C)=CCC/C(C)=C/CC/C(C)=C/CC/C=C(\C)CC/C=C(\C)CC/C=C/[N+](=O)[O-]`, in assay [1], the IC50 was > 400 µM.

In the case of `CC(C)=CCC/C(C)=C/CC/C(C)=C/CC/C=C(\C)CC/C=C(\C)CC/C=N/O`, the IC50 result in assay [2] and in assay [3] was “Not Active” each time. In assay [1], `CC(C)=CCC/C(C)=C/CC/C(C)=C/CC/C=C(\C)CC/C=C(\C)CCC(O)C[N+](=O)[O-]` (stereo not given) displayed an IC50 of 200 µM.

In assay [1], `CC(C)=CCC/C(C)=C/CC/C(C)=C/CC/C=C(\C)CC/C=C(\C)CCCN(C)O` had an IC50 of 5 µM.
